Assay results taken from US5252579A, “Macrocyclic immunomodulators” (American Home Products Corporation, priority 1993, dated 1993).
Where two headings read alike, the source gives them in different places.

Assays:
[1] = tested on: skin graft; experiment: pinch skin graft survival test procedure; type: in vivo, male BAB/c donors, male C3H(H-2K) recipients; conditions: 4 mg/kg of test compound; intraperitoneally or orally; untreated control 7.00 ± 0.00 days
Experimental: (§1) Immunosuppressive activity for a representative compound of this invention was evaluated in an in vitro standard pharmacological test procedure to measure lymphocyte proliferation (LAF) and in an in vivo standard pharmacological test procedure with evaluated the survival time of a pinch skin graft.
A representative compound of this invention was also evaluated in an in vivo test procedure designed to determine the survival time of pinch skin graft from male BAB/c donors transplanted to male C3 H(H-2K) recipients. The method is adapted from Billingham R. E. and Medawar P. B., J. Exp. Biol. 28:385-402, (1951). Briefly, a pinch skin graft from the donor was grafted on the dorsum of the recipient as a allograft, and an isograft was used as control in the same region. The recipients were treated with either varying concentrations of test compounds intraperitoneally or orally. Rapamycin was used as a test control. Untreated recipients serve as rejection control. The graft was monitored daily and observations were recorded until the graft became dry and formed a blackened scab. This was considered as the rejection day. The mean graft survival time (number of days±S.D.) of the drug treatment group was compared with the control group. […] Results are expressed as the mean survival time in days. Untreated (control) pinch skin grafts are usually rejected within 6-7 days. […]

[2] = tested on: thymocyte proliferation; experiment: comitogen-induced thymocyte proliferation procedure (LAF); type: cell-based, BALB/c mice; conditions: for IC50: read-out: LAF IC50
Experimental: as §1
The comitogen-induced thymocyte proliferation procedure (LAF) was used as an […] measure of the immunosuppressive effects of representative compounds. Briefly, cells from the thymus of normal BALB/c mice are cultured for 72 hours with PHA and IL-1 and pulsed with tritiated thymidine during the last six hours. Cells are cultured with and without various concentrations of rapamycin, cyclosporin A, or test compound. Cells are harvested and incorporated radioactivity is determined. Inhibition of lymphoproliferation is assessed as percent change in counts per minute from non-drug treated controls. For each compound evaluated, rapamycin was also evaluated for the purpose of comparison. An IC50 was obtained for each test compound as well as for rapamycin. The results obtained for the representative compounds of this invention were also expressed as a ratio compared with rapamycin. A positive ratio indicates immunosuppressive activity. […] Calculation of the ratio is shown below. [formula]

[3] = tested on: Candida albicans; conditions: both in vitro and in vivo; cited from earlier work
[4] = alone or in combination with picibanil; cited from earlier work
[5] = tested on: IgE-like antibodies; conditions: cited from earlier work
[6] = tested on: adjuvant arthritis model; conditions: model for rheumatoid arthritis; cited from earlier work
[7] = tested on: experimental allergic encephalomyelitis model; conditions: model for multiple sclerosis; cited from earlier work

Compound | Skin Graft survival (days ± SD) [1] [days] | T cell proliferation inhibition ([2]; at 10 nM) [%] | T cell proliferation inhibition ([2]; at 0.1 μM) [%] | LAF ratio (compared with rapamycin) ([2]; ratio > 1: inhibits thymocyte proliferation to a greater extent than rapamycin) | IC50 ([2]; thymocytes cultured 72 hours with PHA and IL-1, tritiated thymidine) [nM] | antifungal activity [3] | antitumor activity [4] | inhibition of formation of IgE-like antibodies [5] | effect in adjuvant arthritis model [6] | IC50 ([2]; Mus musculus, Thymocyte, 72 h) [nM] | effect in experimental allergic encephalomyelitis model [7]
23,25-Deepoxy-23,25-(2-aminoethanethio)-rapamycin [Example 2] | 9.00 ± 0.63 | 77 | 96 | 0.82 | 5.1 |  |  |  |  |  | 
CO[C@H]1C[C@@H]2CC[C@@H](C)[C@@](O)(O2)C(=O)C(=O)N2CCCC[C@H]2C(=O)O[C@H]([C@H](C)C[C@@H]2CC[C@@H](O)[C@H](OC)C2)CC(=O)[C@H](C)/C=C(\C)[C@@H](O)[C@@H](OC)C(=O)[C@H](C)C[C@H](C)/C=C/C=C/C=C/1C [Rapamycin] | 11.67 ± 0.63 |  |  |  |  | antifungal activity, particularly against Candida albicans | antitumor activity | effectively inhibited | effective | 4.2 | effective
